According to ChEMBL document CHEMBL4507292 (2021):

Assays:
[1] = biological target: Serine/threonine-protein kinase Sgk3 (Homo sapiens) (UniProt Q96BR1); conditions: Compound concentration 1000.0 nM
[2] = biological target: Serine/threonine-protein kinase RIO3 (Homo sapiens) (UniProt O14730); conditions: Compound concentration 1000.0 nM
[3] = biological target: 5-hydroxytryptamine receptor 1E (Homo sapiens) (UniProt P28566); conditions: Compound concentration 10.0 uM
[4] = biological target: Dual specificity mitogen-activated protein kinase kinase 2 (Homo sapiens) (UniProt P36507); conditions: Compound concentration 1000.0 nM
[5] = biological target: Death-associated protein kinase 3 (Homo sapiens) (UniProt O43293); conditions: Compound concentration 1000.0 nM
Chain of Death-associated protein kinase 3 (Homo sapiens) (O43293 whole entry, looked up): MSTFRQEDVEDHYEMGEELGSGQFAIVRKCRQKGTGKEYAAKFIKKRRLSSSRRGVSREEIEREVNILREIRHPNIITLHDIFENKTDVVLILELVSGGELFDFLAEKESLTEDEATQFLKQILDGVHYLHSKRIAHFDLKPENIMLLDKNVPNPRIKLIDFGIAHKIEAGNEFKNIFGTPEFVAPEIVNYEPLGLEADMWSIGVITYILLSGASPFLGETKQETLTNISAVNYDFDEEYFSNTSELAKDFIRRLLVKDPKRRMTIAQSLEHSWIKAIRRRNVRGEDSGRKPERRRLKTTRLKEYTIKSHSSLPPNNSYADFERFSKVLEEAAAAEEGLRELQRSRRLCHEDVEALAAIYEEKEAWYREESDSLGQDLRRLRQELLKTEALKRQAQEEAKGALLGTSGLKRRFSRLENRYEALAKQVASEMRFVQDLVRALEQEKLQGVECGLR

[6] = biological target: Activin receptor type-2B (Homo sapiens) (UniProt Q13705); conditions: Compound concentration 1000.0 nM
[7] = biological target: Serine/threonine-protein kinase D1 (Homo sapiens) (UniProt Q15139); conditions: Compound concentration 1000.0 nM
[8] = biological target: Aurora kinase C (Homo sapiens) (UniProt Q9UQB9); conditions: Compound concentration 1000.0 nM
Chain of Aurora kinase C (Homo sapiens) (Q9UQB9 whole entry): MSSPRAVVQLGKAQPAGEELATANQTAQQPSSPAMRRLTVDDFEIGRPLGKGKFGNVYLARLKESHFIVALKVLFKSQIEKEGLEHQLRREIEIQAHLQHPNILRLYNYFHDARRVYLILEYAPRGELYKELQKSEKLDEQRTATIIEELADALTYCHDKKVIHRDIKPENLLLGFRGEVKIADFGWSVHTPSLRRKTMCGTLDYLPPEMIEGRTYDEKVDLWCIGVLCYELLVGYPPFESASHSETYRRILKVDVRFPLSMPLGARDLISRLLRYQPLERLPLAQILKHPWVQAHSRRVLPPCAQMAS

[9] = biological target: Atypical kinase COQ8B, mitochondrial (Homo sapiens) (UniProt Q96D53); conditions: Compound concentration 1000.0 nM
[10] = biological target: Serine/threonine-protein kinase Nek9 (Homo sapiens) (UniProt Q8TD19); conditions: Compound concentration 1000.0 nM
[11] = biological target: Uncharacterized serine/threonine-protein kinase SBK3 (Homo sapiens) (UniProt P0C264); conditions: Compound concentration 1000.0 nM
[12] = biological target: GABA-A receptor; anion channel (Rattus norvegicus) (UniProt O09028+P15431+P18506+P18508+P19969+P20236+P23574+P23576+P28471+P28473+P30191+P62813+P63079+P63138+Q91ZM7+Q9ES14); conditions: Compound concentration 10.0 uM
[13] = biological target: Serine/threonine-protein kinase TNNI3K (Homo sapiens) (UniProt Q59H18); conditions: Compound concentration 1000.0 nM
[14] = biological target: Cyclin-dependent kinase 15 (Homo sapiens) (UniProt Q96Q40); conditions: Compound concentration 1000.0 nM
[15] = biological target: Hepatocyte growth factor receptor (Homo sapiens) (UniProt P08581); conditions: Compound concentration 1000.0 nM
[16] = biological target: Serine/threonine-protein kinase PAK 3 (Homo sapiens) (UniProt O75914); conditions: Compound concentration 1000.0 nM
[17] = biological target: Tyrosine-protein kinase ABL1 (Homo sapiens) (UniProt P00519); conditions: Compound concentration 1000.0 nM
[18] = biological target: Casein kinase I isoform gamma-3 (Homo sapiens) (UniProt Q9Y6M4); conditions: Compound concentration 1000.0 nM
Chain of Casein kinase I isoform gamma-3 (Homo sapiens) (Q9Y6M4 whole entry, looked up, canonical isoform): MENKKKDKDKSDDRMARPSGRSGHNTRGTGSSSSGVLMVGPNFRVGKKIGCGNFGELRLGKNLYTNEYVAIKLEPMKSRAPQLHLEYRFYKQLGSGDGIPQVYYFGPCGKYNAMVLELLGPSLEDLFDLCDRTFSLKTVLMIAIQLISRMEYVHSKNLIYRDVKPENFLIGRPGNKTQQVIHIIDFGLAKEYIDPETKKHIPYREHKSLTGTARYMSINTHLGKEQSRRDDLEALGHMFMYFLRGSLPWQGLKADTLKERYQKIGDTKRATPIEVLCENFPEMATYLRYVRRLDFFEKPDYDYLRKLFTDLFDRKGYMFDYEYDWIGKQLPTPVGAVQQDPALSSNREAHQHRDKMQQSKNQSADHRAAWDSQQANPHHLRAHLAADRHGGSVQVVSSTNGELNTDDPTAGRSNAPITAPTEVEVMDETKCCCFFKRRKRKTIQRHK

[19] = biological target: Casein kinase I isoform epsilon (Homo sapiens) (UniProt P49674); conditions: Compound concentration 1000.0 nM
[20] = biological target: NUAK family SNF1-like kinase 2 (Homo sapiens) (UniProt Q9H093); conditions: Compound concentration 1000.0 nM
[21] = biological target: Serine/threonine-protein kinase 17A (Homo sapiens) (UniProt Q9UEE5); conditions: Compound concentration 1000.0 nM
[22] = test system: Phosphatidylinositol 4,5-bisphosphate 3-kinase catalytic subunit alpha isoform (Homo sapiens), P42336 [Q546K]; conditions: Compound concentration 1000.0 nM
[23] = biological target: Ribosomal protein S6 kinase alpha-4 (Homo sapiens) (UniProt O75676); conditions: Compound concentration 1000.0 nM
[24] = biological target: Peripheral plasma membrane protein CASK (Homo sapiens) (UniProt O14936); conditions: Compound concentration 1000.0 nM
[25] = biological target: Dual specificity mitogen-activated protein kinase kinase 1 (Homo sapiens) (UniProt Q02750); conditions: Compound concentration 1000.0 nM
[26] = biological target: Citron Rho-interacting kinase (Homo sapiens) (UniProt O14578); conditions: Compound concentration 1000.0 nM
[27] = biological target: Serine/threonine-protein kinase PAK 2 (Homo sapiens) (UniProt Q13177); conditions: Compound concentration 1000.0 nM
[28] = biological target: Dual specificity protein kinase CLK2 (Homo sapiens) (UniProt P49760); conditions: Compound concentration 1000.0 nM
[29] = biological target: Dual specificity protein kinase TTK (Homo sapiens) (UniProt P33981); conditions: Compound concentration 1000.0 nM
[30] = biological target: Tyrosine-protein kinase TXK (Homo sapiens) (UniProt P42681); conditions: Compound concentration 1000.0 nM
Chain of Tyrosine-protein kinase TXK (Homo sapiens) (P42681 whole entry): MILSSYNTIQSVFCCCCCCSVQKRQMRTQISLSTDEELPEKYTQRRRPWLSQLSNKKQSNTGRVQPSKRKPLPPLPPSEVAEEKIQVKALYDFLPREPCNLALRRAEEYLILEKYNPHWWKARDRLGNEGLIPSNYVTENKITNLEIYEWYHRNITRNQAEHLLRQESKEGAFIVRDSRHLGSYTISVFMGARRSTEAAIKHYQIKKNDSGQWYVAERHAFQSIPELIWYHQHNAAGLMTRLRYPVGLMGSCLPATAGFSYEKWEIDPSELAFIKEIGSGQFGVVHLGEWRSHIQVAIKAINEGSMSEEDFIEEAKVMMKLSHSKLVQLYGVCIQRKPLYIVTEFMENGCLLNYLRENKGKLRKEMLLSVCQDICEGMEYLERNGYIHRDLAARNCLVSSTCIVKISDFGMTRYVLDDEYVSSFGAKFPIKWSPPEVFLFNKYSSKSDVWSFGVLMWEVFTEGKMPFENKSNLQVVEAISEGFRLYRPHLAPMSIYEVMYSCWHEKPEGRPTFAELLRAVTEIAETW

[31] = biological target: Serine/threonine-protein kinase Chk1 (Homo sapiens) (UniProt O14757); conditions: Compound concentration 1000.0 nM
[32] = test system: Mast/stem cell growth factor receptor Kit (Homo sapiens), P10721 [D816V]; conditions: Compound concentration 1000.0 nM
Chain of Mast/stem cell growth factor receptor Kit (Homo sapiens), P10721 [D816V] (P10721 whole entry D816V): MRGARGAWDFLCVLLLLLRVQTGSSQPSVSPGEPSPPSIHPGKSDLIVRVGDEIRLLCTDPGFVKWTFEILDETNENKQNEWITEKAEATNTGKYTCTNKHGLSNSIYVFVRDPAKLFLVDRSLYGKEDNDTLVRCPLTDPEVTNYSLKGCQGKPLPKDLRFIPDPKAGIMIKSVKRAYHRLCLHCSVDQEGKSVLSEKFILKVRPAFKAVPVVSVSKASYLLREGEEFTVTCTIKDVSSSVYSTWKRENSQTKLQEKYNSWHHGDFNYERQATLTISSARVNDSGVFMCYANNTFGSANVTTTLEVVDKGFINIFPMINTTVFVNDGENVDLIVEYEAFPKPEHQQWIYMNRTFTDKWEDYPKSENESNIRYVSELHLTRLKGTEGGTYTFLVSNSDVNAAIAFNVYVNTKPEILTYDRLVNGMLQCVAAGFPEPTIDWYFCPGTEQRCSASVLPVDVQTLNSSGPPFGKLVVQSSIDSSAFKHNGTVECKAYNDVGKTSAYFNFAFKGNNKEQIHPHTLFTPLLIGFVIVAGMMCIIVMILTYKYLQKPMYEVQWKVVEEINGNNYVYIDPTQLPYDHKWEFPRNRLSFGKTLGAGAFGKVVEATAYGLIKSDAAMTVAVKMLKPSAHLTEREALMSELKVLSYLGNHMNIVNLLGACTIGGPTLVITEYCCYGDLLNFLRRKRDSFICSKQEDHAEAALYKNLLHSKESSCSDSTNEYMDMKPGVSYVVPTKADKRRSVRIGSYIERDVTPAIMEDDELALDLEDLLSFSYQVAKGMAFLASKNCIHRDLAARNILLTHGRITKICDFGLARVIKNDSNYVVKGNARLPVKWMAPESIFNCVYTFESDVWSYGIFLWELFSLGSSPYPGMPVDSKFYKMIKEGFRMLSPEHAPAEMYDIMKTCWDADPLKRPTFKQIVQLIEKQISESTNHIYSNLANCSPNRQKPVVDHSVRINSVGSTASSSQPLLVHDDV

[33] = biological target: Alpha-1B adrenergic receptor (Homo sapiens) (UniProt P35368); conditions: Compound concentration 10.0 uM
[34] = biological target: Tyrosine-protein kinase Srms (Homo sapiens) (UniProt Q9H3Y6); conditions: Compound concentration 1000.0 nM
[35] = biological target: Sigma non-opioid intracellular receptor 1 (Homo sapiens, UniProt Q99720); experiment: GPCRScan assay: inhibition of Sigma 1; set-up: radioligand conc. used [nm] 4.0 – 5.0, parental cells HEKT
Chain of Sigma non-opioid intracellular receptor 1 (Q99720 whole entry): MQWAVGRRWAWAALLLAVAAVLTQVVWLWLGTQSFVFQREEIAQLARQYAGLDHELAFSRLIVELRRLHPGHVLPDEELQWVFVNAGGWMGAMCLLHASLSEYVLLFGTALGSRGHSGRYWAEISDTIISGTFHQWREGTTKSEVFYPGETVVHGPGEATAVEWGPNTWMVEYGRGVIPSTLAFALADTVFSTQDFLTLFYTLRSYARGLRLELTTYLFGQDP

[36] = biological target: 5-hydroxytryptamine receptor 2B (Homo sapiens) (UniProt P41595); conditions: Compound concentration 10.0 uM
[37] = biological target: Serine/threonine-protein kinase TBK1 (Homo sapiens) (UniProt Q9UHD2); conditions: Compound concentration 1000.0 nM
[38] = biological target: Serine/threonine-protein kinase N2 (Homo sapiens) (UniProt Q16513); conditions: Compound concentration 1000.0 nM
[39] = biological target: Mitogen-activated protein kinase 7 (Homo sapiens) (UniProt Q13164); conditions: Compound concentration 1000.0 nM
Chain of Mitogen-activated protein kinase 7 (Homo sapiens) (Q13164 2-816 limits assumed): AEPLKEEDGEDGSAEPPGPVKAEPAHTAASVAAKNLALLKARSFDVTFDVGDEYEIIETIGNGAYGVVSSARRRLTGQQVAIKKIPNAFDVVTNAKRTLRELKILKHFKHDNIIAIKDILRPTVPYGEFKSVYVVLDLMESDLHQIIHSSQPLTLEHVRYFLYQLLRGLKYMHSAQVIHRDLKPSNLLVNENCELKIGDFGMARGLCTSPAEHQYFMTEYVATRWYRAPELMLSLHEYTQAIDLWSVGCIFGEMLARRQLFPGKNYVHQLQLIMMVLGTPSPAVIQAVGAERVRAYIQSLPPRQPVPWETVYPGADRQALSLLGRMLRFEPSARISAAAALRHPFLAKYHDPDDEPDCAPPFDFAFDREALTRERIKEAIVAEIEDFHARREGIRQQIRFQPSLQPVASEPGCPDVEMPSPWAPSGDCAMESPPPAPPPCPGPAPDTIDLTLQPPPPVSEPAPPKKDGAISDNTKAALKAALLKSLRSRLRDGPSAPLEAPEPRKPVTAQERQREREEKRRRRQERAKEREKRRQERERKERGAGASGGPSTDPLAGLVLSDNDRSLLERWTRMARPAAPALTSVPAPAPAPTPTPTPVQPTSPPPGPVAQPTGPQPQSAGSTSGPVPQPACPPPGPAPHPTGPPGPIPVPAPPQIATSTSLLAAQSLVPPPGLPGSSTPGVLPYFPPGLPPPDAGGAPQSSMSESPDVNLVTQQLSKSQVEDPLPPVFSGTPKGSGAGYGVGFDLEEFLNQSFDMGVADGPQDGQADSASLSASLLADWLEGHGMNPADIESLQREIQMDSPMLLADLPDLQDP

[40] = biological target: Ribosomal protein S6 kinase alpha-2 (Homo sapiens) (UniProt Q15349); conditions: Compound concentration 1000.0 nM
Chain of Ribosomal protein S6 kinase alpha-2 (Homo sapiens) (Q15349 whole entry): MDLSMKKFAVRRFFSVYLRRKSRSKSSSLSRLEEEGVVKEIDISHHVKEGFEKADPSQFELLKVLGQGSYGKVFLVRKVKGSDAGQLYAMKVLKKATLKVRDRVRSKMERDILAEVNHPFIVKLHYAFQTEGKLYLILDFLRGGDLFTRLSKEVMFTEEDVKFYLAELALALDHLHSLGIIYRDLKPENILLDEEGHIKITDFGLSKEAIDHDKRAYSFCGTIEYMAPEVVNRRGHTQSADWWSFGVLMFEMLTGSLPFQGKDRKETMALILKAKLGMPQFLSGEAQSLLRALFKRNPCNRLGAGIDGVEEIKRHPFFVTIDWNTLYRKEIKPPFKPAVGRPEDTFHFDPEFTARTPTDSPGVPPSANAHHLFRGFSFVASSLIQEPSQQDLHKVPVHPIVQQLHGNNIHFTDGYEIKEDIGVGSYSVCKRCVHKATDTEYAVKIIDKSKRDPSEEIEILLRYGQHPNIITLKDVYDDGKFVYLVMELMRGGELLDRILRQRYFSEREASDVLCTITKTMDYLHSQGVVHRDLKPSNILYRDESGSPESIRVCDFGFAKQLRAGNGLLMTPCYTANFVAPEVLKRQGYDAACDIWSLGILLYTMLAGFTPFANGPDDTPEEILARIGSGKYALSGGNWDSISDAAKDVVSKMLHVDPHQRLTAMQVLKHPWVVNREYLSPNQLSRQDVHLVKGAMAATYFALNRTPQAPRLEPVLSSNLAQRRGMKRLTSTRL

[41] = biological target: Activin receptor type-1 (Homo sapiens) (UniProt Q04771); conditions: Compound concentration 1000.0 nM
[42] = biological target: Non-receptor tyrosine-protein kinase TNK1 (Homo sapiens) (UniProt Q13470); conditions: Compound concentration 1000.0 nM
[43] = biological target: Serine/threonine-protein kinase MAK (Homo sapiens) (UniProt P20794); conditions: Compound concentration 1000.0 nM
[44] = biological target: Myosin light chain kinase family member 4 (Homo sapiens) (UniProt Q86YV6); conditions: Compound concentration 1000.0 nM

Chain of Serine/threonine-protein kinase RIO3 (Homo sapiens) (O14730 whole entry): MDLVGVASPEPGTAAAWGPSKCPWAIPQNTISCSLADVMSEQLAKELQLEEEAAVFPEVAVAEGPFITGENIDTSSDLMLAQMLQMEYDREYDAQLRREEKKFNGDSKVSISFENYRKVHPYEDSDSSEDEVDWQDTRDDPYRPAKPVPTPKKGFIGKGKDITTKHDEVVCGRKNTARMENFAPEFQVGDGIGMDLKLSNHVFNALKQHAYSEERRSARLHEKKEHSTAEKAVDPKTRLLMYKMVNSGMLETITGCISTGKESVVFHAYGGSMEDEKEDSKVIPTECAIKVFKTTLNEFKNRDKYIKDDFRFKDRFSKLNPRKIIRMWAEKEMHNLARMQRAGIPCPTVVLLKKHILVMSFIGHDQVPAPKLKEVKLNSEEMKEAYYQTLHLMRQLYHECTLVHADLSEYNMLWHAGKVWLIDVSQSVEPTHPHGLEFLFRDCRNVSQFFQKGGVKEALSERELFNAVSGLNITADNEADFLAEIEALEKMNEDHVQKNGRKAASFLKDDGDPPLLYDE

Cc1c(C(=O)O)cc(-c2ccc(C3CCNCC3)cc2)c2ccc(-c3ccc(C(F)(F)F)cc3)cc12 [PPTN-NC]
residual activity [1]: 100% | residual activity [2]: 100% | inhibition [3]: 3.48% | residual activity [4]: 100% | residual activity [5]: 100% | residual activity [6]: 88% | residual activity [7]: 100% | residual activity [8]: 92% | residual activity [9]: 100% | residual activity [10]: 100% | residual activity [11]: 80% | inhibition [12]: 10.6% | residual activity [13]: 100% | residual activity [14]: 100% | residual activity [15]: 100% | residual activity [16]: 100% | residual activity [17]: 82% | residual activity [18]: 100% | residual activity [19]: 96% | residual activity [20]: 100% | residual activity [21]: 99% | residual activity [22]: 100% | residual activity [23]: 100% | residual activity [24]: 100% | residual activity [25]: 100% | residual activity [26]: 100% | residual activity [27]: 100% | residual activity [28]: 100% | residual activity [29]: 100% | residual activity [30]: 100% | residual activity [31]: 100% | residual activity [32]: 100% | inhibition [33]: 57.4% | residual activity [34]: 100% | Ki [35]: 1170 nM | inhibition [36]: 6.6% | residual activity [37]: 73% | residual activity [38]: 100% | residual activity [39]: 100% | residual activity [40]: 100% | residual activity [41]: 100% | residual activity [42]: 100% | residual activity [43]: 91% | residual activity [44]: 100%

O=C(O)c1cc(-c2ccc(C3CCNCC3)cc2)c2ccc(-c3ccc(C(F)(F)F)cc3)cc2c1 [PPTN]
residual activity [1]: 100% | residual activity [2]: 100% | inhibition [3]: 13.4% | residual activity [4]: 90% | residual activity [5]: 100% | residual activity [6]: 100% | residual activity [7]: 100% | residual activity [8]: 95% | residual activity [9]: 100% | residual activity [10]: 100% | residual activity [11]: 75% | inhibition [12]: -3.62% | residual activity [13]: 100% | residual activity [14]: 96% | residual activity [15]: 100% | residual activity [16]: 100% | residual activity [17]: 75% | residual activity [18]: 100% | residual activity [19]: 100% | residual activity [20]: 100% | residual activity [21]: 100% | residual activity [22]: 100% | residual activity [23]: 100% | residual activity [24]: 100% | residual activity [25]: 100% | residual activity [26]: 100% | residual activity [27]: 100% | residual activity [28]: 100% | residual activity [29]: 100% | residual activity [30]: 100% | residual activity [31]: 100% | residual activity [32]: 100% | inhibition [33]: 85.8% | residual activity [34]: 100% | Ki [35]: 1180 nM | inhibition [36]: 7.95% | residual activity [37]: 80% | residual activity [38]: 100% | residual activity [39]: 100% | residual activity [40]: 100% | residual activity [41]: 100% | residual activity [42]: 100% | residual activity [43]: 100% | residual activity [44]: 94%
